{"source": "patent US20250340648A1", "about": "“COMBINATION THERAPY FOR TREATMENT OF CANCER COMPRISING ANTI-PD-L1 AND ANTI-CD73 ANTIBODIES” (MedImmune Limited, priority 2022, published 2025)", "key": {"[1]": {"system": "adenosine pathway metabolites", "test": "Mass Spectrometry Imaging of CT26 tumors", "assay_type": "in vivo, mouse", "experimental": "Tumors were snap frozen in liquid nitrogen immediately after resection and the frozen tissues were embedded in a HPMC/PVP hydrogel as previously described (Dannhorn A. et al., Anal Chem 2020; 92:11080-8). Sectioning was performed on a CM3050 S cryostat (Leica Biosystems, Nussloch, Germany) at a section thickness of 10 um and the tissue sections were immediately thaw mounted and dried under a stream of nitrogen and sealed in vacuum pouches to preserve the metabolic integrity of the sections. Tissue sections for DESI-MSI and IMC were thaw-mounted onto Superfrost microscope slides (VWR, Cat. No. 630-2863), whilst sections prepared for MALDI-MSI were thaw mounted onto conductive indium tin oxide (ITO) coated slides (Bruker Daltonik, Cat. No. 8237001). Polyvinylpyrrolidone (PVP) and (Hydroxypropyl) methylcellulose (HPMC) (purchased from Merck (Cat. No.PVP360; H8384). Methanol (Cat. No. 15624680), iso-pentane (Cat. No. 15692830) and isopropyl alcohol (Cat. No. 10674732) were obtained from Fisher Scientific.\nDESI-MSI analysis was performed on a Q-Exactive mass spectrometer (Thermo Scientific, Bremen, Germany) equipped with an automated 2D-DESI ion source (Prosolia Inc., Indianapolis, IN, USA) operated in negative ion mode, covering the applicable mass range up to m/z of 1000, with a nominal mass resolution of 70,000. […]"}, "[2]": {"system": "MCA205 (fibrosarcoma) tumor cells", "test": "MCA205 syngeneic mouse tumor model", "assay_type": "in vivo, C57BL/6 mice", "conditions": "MCA205 tumors; result in words", "experimental": "(§1) In vivo studies were performed using 8-10 week old BALB/cAnNCrl mice (Charles River UK) or C57BL/6. Mice were housed in an AstraZeneca vivarium with access to food and water ad libidum and were cared for daily by trained personnel. Mice were acclimatized to the vivarium conditions for a week and handled according to the Home Office Animals Scientific Procedures Act, 1986, UK. All animal work was carried out under a Home Office approved project licence (PPL P49077891) and […] (RTx studies) as well as according to the institutional guidelines. BALB/c mice were subcutaneously implanted with 0.5e6 CT26 (colorectal) tumor cells. […] Tumors were measured with callipers three times a week, starting from day-5. […]\n(§2) All in vivo data were collated in the Excel spreadsheets and transferred to GraphPad Prism 9.00 (GraphPad Software Inc.) for graphical representation and statistical analysis. After outlier identification and Shapiro-Wilk test for normality distribution, statistical significance was determined by One-way ANOVA followed by Dunnett's multiple comparison for comparisons of more than two groups if data were normally distributed. […] Survival studies were analysed with a log rank (Mantel-Cox) test, comparing only two survival curves at a time. […]"}, "[3]": {"system": "CT26 (colorectal) tumor cells", "test": "CT26 syngeneic mouse tumor model", "assay_type": "in vivo, BALB/c mice", "conditions": "CT26 tumors; result in words", "experimental": "as §1, §2"}, "[4]": {"system": "immune cell populations in the treated CT26 tumors", "test": "MCP-Counter estimate of immune cell abundance from RNAseq", "set-up": "species or system mouse", "conditions": "MCP counter on RNAseq", "experimental": "(§3) Gene set enrichment analysis was performed using R package ‘fGSEA’ (Korotkevich G et al., bioRxiv 2021; 060012) using hallmark gene sets from mouse MSigDB (Subramanian A. et al., Proc Natl Acad Sci USA 2005; 102:15545-50). Enrichment p-values were calculated as described in Korotkevich G et al., bioRxiv 2021; 060012 and p-values were adjusted using Benjamini-Hochberg method. Gene ontology Biological Process enrichments were identified using R package topGO (Bioconductor-topGO) with adj-pval<0.05. KEGG pathway enrichment analysis was conducted using R package clusterProfiler (Wu T. et al., The Innovation 2021; 2:100141). MCPCounter tool (Becht E. et al., Genome Biol 2016; 17:1-20) was used to estimate immune cell abundances for each sample and condition using immune gene signatures within MCPCounter.\nNext we checked if the gene perturbation at this scale also led to changes in the enumeration of the cell populations. For this we estimated the abundance of immune cell populations in the treated CT26 tumors, using the MCP-Counter tool (Becht E, et al., Genome Biol 2016; 17:1-20)."}, "CT26 transcriptome": {"system": "CT26 transcriptome", "test": "RNAseq of treated CT26 tumors", "assay_type": "in vivo, Mus musculus", "experimental": "Tumor tissue was flash-frozen in liquid nitrogen and stored at −80° C. at the time of collection in the animal unit and was sent to Novogene on dry ice. Tissue processing and RNA extraction was carried out by Novogene Co. by using the QIAGEN RNeasy Plus Universal kit (Qiagen, Cat. No. 73404), according to the manufacturer's protocol. Briefly, tissue samples were homogenized in QIAzol Lysis Reagent. The homogenate was then separated into aqueous and organic phases by centrifugation after addition of gDNA eliminator solution and chloroform. The upper, aqueous phase containing RNA was collected, and RNA purified using RNeasy spin columns. RNA quality check (QC) was performed by 1% Agarose gel electrophoresis, amount and purity were measured by Nanodrop, and RNA […] Number (RIN) was obtained by Bioanalyzer Agilent2100.\nNEBNextR Ultra RNA library prep kit (Cat. No. E7530L) was used for library preparation for sequencing. Samples were sequenced using Illumina PE150 (50M reads/sample) bulk RNA-seq and downstream bioinformatic analysis was performed.\nReads were mapped to Mus musculus genome (mm10) genome using Star (Dobin A et al., Bioinformatics 2013; 29:15-21). Uniquely mapped reads were counted using htseq-count (Putri GH et al., Bioinformatics 2022; 38:2943-5). DESeq2 (Love M I et al., Genome Biol 2014; 15) was used to normalize counts with size factors and identify differentially expressed genes across conditions with a threshold of abs (log2FC)>1 and adjusted p value<0.05.\nas §3"}, "[5]": {"conditions": "CT26 tumors vs control, abs(log2FC)>1, adjusted p<0.05"}, "[6]": {"conditions": "CT26 tumors, component added to the other parts of aCD73+aPD-L1+5FU+OHP"}, "[7]": {"conditions": "component within aCD73+aPD-L1+5FU+OHP, not modulated in other iterations"}}, "note": "“Also recorded” adds a separate entry of the source."}
{"substance": "5-fluorouracil (5FU)+oxaliplatin (OHP) [5FU+OHP]", "values": [{"measurement": "ATP abundance (MSI)", "setting": "[1]; compared to control treated tumors", "value": "modest increase"}, {"measurement": "AMP abundance (MSI)", "setting": "[1]; compared to other treatment groups", "value": "modest increase"}, {"measurement": "tumor growth inhibition / efficacy", "setting": "[2]", "value": "supressed tumor growth rates; also recorded: retarded tumor growth in a proportion of drug recipients"}, {"measurement": "tumor growth inhibition / efficacy", "setting": "[3]", "value": "supressed tumor growth rates; also recorded: retarded tumor growth in a proportion of drug recipients"}, {"measurement": "abundance of immune cell populations in tumor", "setting": "[4]", "value": "increased lymphocyte representation"}, {"measurement": "Down-regulated genes", "setting": "CT26 transcriptome; [5]", "value": 158, "unit": "genes"}, {"measurement": "Up-regulated genes", "setting": "CT26 transcriptome; [5]", "value": 277, "unit": "genes"}, {"measurement": "differentially expressed (DE) genes", "setting": "CT26 transcriptome; [5]", "value": 435, "unit": "DE DE genes"}, {"measurement": "Up-regulated genes", "setting": "CT26 transcriptome; CT26 tumors vs control, abs(log2FC)>1, adjusted p<0.05, listed as FF", "value": 277, "unit": "Up- genes"}, {"measurement": "genes downregulated when the named component is included in the combination", "setting": "CT26 transcriptome; [6]", "value": "IL-10, IL-1b, CXCL2, S100A8"}, {"measurement": "genes upregulated or notably influenced when the named component is included in the combination", "setting": "CT26 transcriptome; [6]", "value": "Interferon-gamma, TRIM6, CCL17, Granzyme B, GDF15, perforin and Lag3"}, {"measurement": "individual genes downregulated", "setting": "CT26 transcriptome; CT26 tumors, gene names", "value": "CXCL2 expression was reduced; also recorded: CXCL2, IL-1b, CD103 and XCR1"}, {"measurement": "individual genes upregulated", "setting": "CT26 transcriptome; CT26 tumors, gene names", "value": "CCL3, 4, 8, 17, CXCL10, GDF15, CD8a, IFNγ, Perforin, Granzyme, Lag-3 and PD-1; also recorded: IFN-Y, CCL3, CCL8, Lag-3 and granzyme B; also recorded: elevated ARORA2 gene expression"}, {"measurement": "DE genes due to addition of the named component", "setting": "CT26 transcriptome; aCD73+aPD-L1+5FU+OHP vs the combination without the component, Abs(log2FC)>=1, Adj-pval<0.05", "value": 546, "unit": "DE genes"}, {"measurement": "genes uniquely downregulated by the named component", "setting": "CT26 transcriptome; [7]", "value": 122, "unit": "genes"}, {"measurement": "genes uniquely upregulated by the named component", "setting": "CT26 transcriptome; [7]", "value": 360, "unit": "genes"}]}
